Experimental data reported in US9314521B2, “Adjuvant compound” (ISA Pharmaceuticals B.V., priority 2011, dated 2016).
Non-standard residues stand in square brackets, D forms with d. No end group written: not given here. *: point of attachment. Cys((RS)-2,3-di(palmitoyloxy)-propyl) = Cys S-substituted with (RS)-2,3-di(palmitoyloxy)-propyl (dipalmitoyl-glyceryl); X1 = (RS)‑2,3‑di(palmitoyloxy)‑propyl, CCCCCCCCCCCCCCCC(=O)OCC(C*)OC(=O)CCCCCCCCCCCCCCC; 1‑tetradecyl‑urea = N-terminal tetradecyl-urea lipid group, CCCCCCCCCCCCCCNC(=O)*; Abu = CC[C@H](N)C(=O)O

Legend:
DC = assay: UPam variants: up-regulation of cell surface markers CD40, CD86 and MHC Class II (DC maturation); type: cell-based; conditions: 3 μM and 30 nM
Method: The UPam variants wherein Xn was varied were compared by measuring IL-12 production and the up-regulation of the cell surface markers CD40, CD86 and MHC Class II at 3 μM and 30 nM. Herein, Xn takes the place of serine in the SK4 (SEQ ID NO: 18) peptide part according to formula (2), containing different groups for R^5. Compounds X1 up to X8 containing these different groups R^5, which were studied are listed in the table below, wherein X1 is the UPam-14 as prepared in Example 1 and X2 is the UPam-14-Abu as prepared in Example 3. The potency of the compounds to upregulate CD40 followed the trend as observed in the DC maturation assay. […] In the up-regulation of the cell surface marker CD86 and MHC class II a corroborated trend was observed.

murine DC cell line = assay: DC maturation: cell surface marker expression in murine DC cell line by FACS (FIG. 4); type: cell-based; conditions: 30 nM, 48 hours, compared to Pam3CSK4
Method: The DCs were subsequently stained with antibodies directed against CD40, CD86 and MHC class II molecules. Mean fluorescence intensity was determined FACS analysis.

[1] = system: human monocyte-derived dendritic cells (moDC); assay: activation of human monocyte-derived dendritic cells (moDC): IL12p40, IL12p70 ELISA and CD86 staining (FIG. 5); type: cell-based; conditions: 48 hours of incubation, compared to Pam3CSK4 or Pam-SLP
Method: On day 5 of culturing the CD 14±fraction of donor PBMC in growth medium with IL-4 and GM-CSF, these moDC were incubated with either wt Pam3CSK4 (SEQ ID NO: 11), U-Pam14, Pam3CSK4 (SEQ ID NO: 11)-conjugated or U-Pam14-conjugated synthetic long peptide (Pam-SLP or uPam14-SLP), or left unstimulated. After 48 hours of incubation, the supernatant of the moDC cultures was taken, which was subjected to IL12p40 (FIG. 5A) and IL12p70 (FIG. 5B) ELISA analysis. After 48 hours of incubation, the moDCs were stained with antibodies directed against CD86 (FIG. 5C).

[2] = system: murine dendritic cell line; assay: activation of murine dendritic cell line, IL-12 ELISA; type: cell-based; conditions: 24 hours, titrating concentrations
Method: The two compounds U-Pam-12 and U-Pam-14 as obtained in Example 1 were tested in comparison to unmodified Pam3CysSK4 (SEQ ID NO: 11) for their functional capacity to activate a human TLR2 expressing reporter cell line HEK-TLR2 (FIG. 3A) and a murine dendritic cell line (FIG. 3B).
In the test live TLR2-transfected HEK cells and dendritic cells (5×10^4 cells/well) were incubated with titrating concentrations of the respective Pam compounds in culture medium and incubated at 37° C. After 24 hours, supernatants were harvested and the presence of IL-8 or IL-12 cytokines respectively, was measured by specific sandwich ELISA assays.

cellular immune response = conditions: mice; Vaccine 22 (2004) 2494-2499; cited from earlier work

Row | Substance | up-regulation of CD40 compared to Pam3Cys-SK4 (DC) | expression of cell surface molecules CD40, CD86 and MHC class II (mean fluorescence intensity) (murine DC cell line) | activation of human dendritic cells (IL12p40, IL12p70, CD86) [1] | stimulation (IL-12 cytokine production) compared to unmodified Pam3CysSK4 [2] | additive for eliciting a cellular immune response (cellular immune response)
1 | 1-tetradecyl-urea-Cys((RS)-2,3-di(palmitoyloxy)-propyl)-Abu-Lys-Lys-Lys-Lys-NH2 ({1‑tetradecyl‑urea-Cys((RS)-2,3-di(palmitoyloxy)-propyl)}-[Abu]KKKK-NH2) [Upam-14-Abu] | increased amount of up-regulation | – | – | – | –
2 | 1-tetradecyl-urea-Cys((RS)-2,3-di(palmitoyloxy)-propyl)-Ser-Lys-Lys-Lys-Lys-NH2 ({1‑tetradecyl‑urea}-C(X1)SKKKK-NH2; SMILES CCCCCCCCCCCCCCCC(=O)OCC(CSC[C@H](NC(=O)NCCCCCCCCCCCCCC)C(=O)N[C@@H](CO)C(=O)N[C@@H](CCCCN)C(=O)N[C@@H](CCCCN)C(=O)N[C@@H](CCCCN)C(=O)N[C@@H](CCCCN)C(N)=O)OC(=O)CCCCCCCCCCCCCCC) [U-Pam-14] | increased amount of up-regulation | superior to wt Pam | improves activation of human dendritic cells | superior to wt Pam | –
3 | Pam3Cys-SK4: established TLR2/TLR1 ligand, state of the art lipopeptide adjuvant (SEQ ID NO: 11) (CSKKKK; not fully specified (residue 1, N-terminus)) | – | – | – | – | most effective additive
